Assay [1] has as its target T1, human Cot catalytic domain (30-397 amino acids) (Homo sapiens, UniProt P41279).
T1 construct: Purified recombinant human Cot catalytic domain (30-397 amino acids) was purchased from Cama Biosciences; purchased Cama Biosciences (so in the source)
Description: High Throughput Cot Biochemical Assay (KinEASE TR-FRET). The conditions noted are these: Cot KinEASE TR-FRET (HTRF) biochemical assay, 400 μM ATP; read-out: IC50 HTRF. In outline:
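Reaction of 5 nM recombinant human Cot catalytic domain (aa 30-397) with 1 μM STK3 peptide (XL665-labeled) and 400 μM ATP in 10 mM MOPS pH 7.0, 10 mM MgOAc, 1 mM DTT, 0.5 mg/mL BSA, 0.1% DMSO. Phosphopeptide detected by TR-FRET with europium anti-phospho antibody.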
Background: Time-resolved FRET reads energy transfer from a long-lived donor to a nearby acceptor.

Assay [2] has as its system TNFα production in LPS-stimulated human monocytes. Description: Cot Monocyte TNFα Cell Based Assay. The conditions noted are these: Homo sapiens, Monocyte, TNFα in LPS-stimulated human monocytes; read-out: EC50 TNF. A digest of the protocol: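 Cells at 5,000/well were pretreated with compound for 1 h at 37 °C (0.5% DMSO final), then stimulated with 50 pg/ml LPS for 4 h at 37 °C. Supernatant TNFα was measured by two-antibody TR-FRET after overnight room-temperature incubation; values are percent of control between unstimulated and stimulated wells.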

From patent US10316017B2, “COT modulators and methods of use thereof” (Gilead Sciences, Inc., priority 2015, dated 2019) come the findings set out here.

Each structure is given as a SMILES string.

T1 sequence (P41279 30-397): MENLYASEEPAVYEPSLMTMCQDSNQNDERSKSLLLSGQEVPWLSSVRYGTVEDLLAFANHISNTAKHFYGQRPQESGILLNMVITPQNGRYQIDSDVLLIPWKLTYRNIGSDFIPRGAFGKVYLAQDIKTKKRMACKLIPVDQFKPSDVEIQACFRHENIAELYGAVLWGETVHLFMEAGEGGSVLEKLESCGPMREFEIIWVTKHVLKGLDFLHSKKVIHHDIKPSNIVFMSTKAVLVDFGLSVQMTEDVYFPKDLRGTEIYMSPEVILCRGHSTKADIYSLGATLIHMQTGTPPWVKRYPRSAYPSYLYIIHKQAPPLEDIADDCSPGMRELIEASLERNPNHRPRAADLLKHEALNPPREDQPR

In the case of `[2H][C@](Nc1cc(Cl)c2ncc(C#N)c(NCC(C)(C)CO)c2c1)(c1ccc(F)cc1)c1cn(C2CC2)nn1` [Example 308, (S)-8-chloro-6-(((1-cyclopropyl-1H-1,2,3-triazol-4-yl)(4-fluorophenyl)methyl-d)amino)-4-((3-hydroxy-2,2-dimethylpropyl)amino) quinoline-3-carbonitrile], in assay [1], the IC50 was 26 nM. Further, the EC50 in assay [2] was found to be 361 nM.
As for `[2H][C@](Nc1cc(Cl)c2ncc(C#N)c(NNC(C)(C)C)c2c1)(c1ccc(F)cc1)c1cn(C2CC2)nn1` [Example 310, (S)-4-(2-(tert-butyl)hydrazinyl)-8-chloro-6-(((1-cyclopropyl-1H-1,2,3-triazol-4-yl)(4-fluorophenyl)methyl-d)amino)quinoline-3-carbonitrile], the half-inhibitory concentration (IC50) in assay [1] was greater than 10000 nM. Moreover, the EC50 in assay [2] was 2360 nM.
`[2H][C@](Nc1cc(Cl)c2ncc(C#N)c(NCC(C)(C)C)c2c1)(c1ccccc1)c1cn(C2CC2)nn1` [Example 312, (S)-8-chloro-6-(((1-cyclopropyl-1H-1,2,3-triazol-4-yl)(phenyl)methyl-d)amino)-4-(neopentylamino)quinoline-3-carbonitrile]: in assay [1], the IC50 is 5 nM. For the same molecule, the concentration giving a half-maximal response (EC50) in assay [2] was determined as 177 nM.
Consider `[2H][C@](Nc1cc(Cl)c2ncc(C#N)c(N[C@H]3CCC[C@H](O)C3)c2c1)(c1ccc(F)cc1)c1cn(C2CC2)nn1` [Example 313, 8-chloro-6-(((S)-(1-cyclopropyl-1H-1,2,3-triazol-4-yl)(4-fluorophenyl)methyl-d)amino)-4-(((1S,3S)-3-hydroxycyclohexyl)amino) quinoline-3-carbonitrile], for which the IC50 in assay [1] stood at 39 nM. Further, the 50% effective concentration (EC50) in assay [2] was found to be 527 nM.
As to `[2H][C@](Nc1cc(Cl)c2ncc(C#N)c(N[C@@H]3CCC[C@H](O)C3)c2c1)(c1ccc(F)cc1)c1cn(C2CC2)nn1` [Example 314, 8-chloro-6-(((S)-(1-cyclopropyl-1H-1,2,3-triazol-4-yl)(4-fluorophenyl)methyl-d)amino)-4-(((1R,3S)-3-hydroxycyclohexyl)amino) quinoline-3-carbonitrile], the half-maximal inhibitory concentration (IC50) in assay [1] was 1330 nM. The EC50 in assay [2] was determined as 6390 nM.
In the case of `[2H][C@](Nc1cc(Cl)c2ncc(C#N)c(N[C@H]3CCC[C@@H](O)C3)c2c1)(c1ccc(F)cc1)c1cn(C2CC2)nn1` [Example 315, 8-chloro-6-(((S)-(1-cyclopropyl-1H-1,2,3-triazol-4-yl)(4-fluorophenyl)methyl-d)amino)-4-(((1S,3R)-3-hydroxycyclohexyl)amino) quinoline-3-carbonitrile], in assay [1], the half-maximal inhibitory concentration (IC50) amounted to 134 nM. Besides, the EC50 in assay [2] was found to be 1010 nM.
As for `[2H][C@](Nc1cc(Cl)c2ncc(C#N)c(N[C@@H]3CCC[C@@H](O)C3)c2c1)(c1ccc(F)cc1)c1cn(C2CC2)nn1` [Example 316, 8-chloro-6-(((S)-(1-cyclopropyl-1H-1,2,3-triazol-4-yl)(4-fluorophenyl)methyl-d)amino)-4-(((1R,3R)-3-hydroxycyclohexyl)amino) quinoline-3-carbonitrile], in assay [1], the half-maximal inhibitory concentration (IC50) was determined as 1820 nM. Further, the EC50 in assay [2] was 3640 nM.
The like results for `[2H][C@](Nc1cc(Cl)c2ncc(C#N)c(N[C@@H]3CCCCC3(C)C)c2c1)(c1ccc(F)cc1)c1cn(C2CC2)nn1` [Example 318, 8-chloro-6-(((S)-(1-cyclopropyl-1H-1,2,3-triazol-4-yl)(4-fluorophenyl)methyl-d)amino)-4-(((R)-2,2-dimethylcyclohexyl)amino) quinoline-3-carbonitrile] were, in that order, 34 nM and 451 nM.
On to `[2H][C@](Nc1cc(Cl)c2ncc(C#N)c(NC3CCCCC3C)c2c1)(c1ccc(F)cc1)c1cn(C2CC2)nn1` (stereo partly drawn) [Example 321, 8-chloro-6-(((S)-(1-cyclopropyl-1H-1,2,3-triazol-4-yl)(4-fluorophenyl)methyl-d)amino)-4-((2-methylcyclohexyl)amino) quinoline-3-carbonitrile], for which the concentration for half-maximal inhibition (IC50) in assay [1] was 159 nM. Moreover, the EC50 in assay [2] was 391 nM.
Take `N#Cc1cnc2c(Cl)cc(N[C@@H](c3ccc(F)cc3)c3cn(C4CC4)nn3)cc2c1NC(CN1CCOCC1)c1ccccc1` (stereo partly drawn) [Example 322, 8-chloro-6-(((S)-(1-cyclopropyl-1H-1,2,3-triazol-4-yl)(4-fluorophenyl)methyl)amino)-4-((2-morpholino-1-phenylethyl)amino)quinoline-3-carbonitrile]: the 50% inhibitory concentration (IC50) in assay [1] was found to be 140 nM. The concentration giving a half-maximal response (EC50) in assay [2] was determined as 959 nM.
The like results for `N#Cc1cnc2c(Cl)cc(N[C@@H](c3ccc(F)cc3)c3cn(C4CC4)nn3)cc2c1NC(CF)c1ccccc1` (stereo partly drawn) [Example 323, 8-chloro-6-(((S)-(1-cyclopropyl-1H-1,2,3-triazol-4-yl)(4-fluorophenyl)methyl)amino)-4-((2-fluoro-1-phenylethyl)amino)quinoline-3-carbonitrile] were, in that order, 82 nM and 1600 nM.
In the case of `[2H][C@](Nc1cc(Cl)c2ncc(C#N)c(NCC(C)(C)C)c2c1)(c1cccc(C#N)c1)c1c[nH]nn1` [Example 324, (S)-8-chloro-6-(((3-cyanophenyl)(1H-1,2,3-triazol-4-yl)methyl-d)amino)-4-(neopentylamino) quinoline-3-carbonitrile], the IC50 in assay [1] was 4 nM. For the same molecule, the concentration giving a half-maximal response (EC50) in assay [2] was 450 nM.
On to `N#Cc1ccccc1[C@H](Nc1cc(Cl)c2ncc(C#N)c(Nc3cnc(F)c(F)c3)c2c1)c1cn(C2CC2)nn1` [Example 325, (S)-8-chloro-6-(((2-cyanophenyl)(1-cyclopropyl-1H-1,2,3-triazol-4-yl)methyl)amino)-4-((5,6-difluoropyridin-3-yl)amino)quinoline-3-carbonitrile], for which the IC50 in assay [1] is 8 nM. In assay [2], the EC50 was 356 nM.
`[2H]C(Nc1cc(Cl)c2ncc(C#N)c(N[C@H](CC)c3ccccc3)c2c1)(c1ccccc1Cl)c1nn[nH]c1C` (stereo partly drawn) [Example 326, 8-chloro-6-(((2-chlorophenyl) (5-methyl-1H-1,2,3-triazol-4-yl)methyl-d)amino)-4-(((R)-1-phenylpropyl)amino)quinoline-3-carbonitrile]: the IC50 in assay [1] was 199 nM. For the same molecule, the EC50 in assay [2] came out at 1960 nM.
Turning to `[2H][C@](Nc1cc(Cl)c2ncc(C#N)c(NCC(C)(C)C)c2c1)(c1cccc(C#N)c1)c1cn(-c2cccnc2)nn1` [Example 327, (S)-8-chloro-6-(((3-cyanophenyl)(1-(pyridin-3-yl)-1H-1,2,3-triazo1-4-yl)methyl-d)amino)-4-(neopentylamino)quinoline-3-carbonitrile], in assay [1], the IC50 amounted to 4 nM. The concentration for a half-maximal effect (EC50) in assay [2] stood at 166 nM.
As for `N#Cc1ccccc1[C@H](Nc1cc(Cl)c2ncc(C#N)c(Nc3cnc(F)c(F)c3)c2c1)c1c[nH]nn1` [Example 328, (S)-8-chloro-6-(((2-cyanophenyl)(1H-1,2,3-triazol-4-yl)methyl)amino)-4-((5,6-difluoropyridin-3-yl)amino)quinoline-3-carbonitrile], the half-inhibitory concentration (IC50) in assay [1] was 24 nM. For the same molecule, the EC50 in assay [2] was found to be 1240 nM.
On the same counts, the results for `[2H][C@](Nc1cc(Cl)c2ncc(C#N)c(Nc3cnc(F)c(F)c3)c2c1)(c1ccc(F)cc1)c1cn(Cc2c(F)cccc2F)nn1` [Example 329, (S)-8-chloro-6-(((1-(2,6-difluorobenzyl)-1H-1,2,3-triazol-4-yl)(4-fluorophenyl)methyl-d)amino)-4-((5,6-difluoropyridin-3-yl)amino)quinoline-3-carbonitrile] are 32 nM and 808 nM.
For `[2H][C@](Nc1cc(Cl)c2ncc(C#N)c(Nc3cnc(F)c(F)c3)c2c1)(c1ccc(F)cc1)c1cnn(CF)n1` [Example 330, (S)-8-chloro-4-((5,6-difluoropyridin-3-yl)amino)-6-(((2-(fluoromethyl)-2H-1,2,3-triazol-4-yl)(4-fluorophenyl)methyl-d)amino)quinoline-3-carbonitrile], the IC50 in assay [1] was found to be 1420 nM. The EC50 in assay [2] was greater than 10000 nM.
`[2H][C@](Nc1cc(Cl)c2ncc(C#N)c(N[C@H](CC#N)c3ccccc3)c2c1)(c1ccc(F)cc1)c1cn(C2CC2)nn1` [Example 331, 8-chloro-4-(((R)-2-cyano-1-phenylethyl)amino)-6-(((S)-(1-cyclopropyl-1H-1,2,3-triazol-4-yl)(4-fluorophenyl)methyl-d)amino)quinoline-3-carbonitrile]: the concentration for half-maximal inhibition (IC50) in assay [1] was 4 nM. Also, the concentration giving a half-maximal response (EC50) in assay [2] was 75 nM.
The like results for `[2H][C@](Nc1cc(Cl)c2ncc(C#N)c(NCC3(C)CCOCC3)c2c1)(c1ccc(F)cc1)c1cn(C2CC2)nn1` [Example 333, (S)-8-chloro-6-(((1-cyclopropyl-1H-1,2,3-triazol-4-yl)(4-fluorophenyl)methyl-d)amino)-4-(((4-methyltetrahydro-2H-pyran-4-yl)methyl)amino) quinoline-3-carbonitrile] were, in that order, 9 nM and 260 nM.
With `[2H][C@](Nc1cc(Cl)c2ncc(C#N)c(N[C@@H](CC#N)c3ccccc3)c2c1)(c1ccc(F)cc1)c1cn(C2CC2)nn1` [Example 334, 8-chloro-4-(((S)-2-cyano-1-phenylethyl)amino)-6-(((S)-(1-cyclopropyl-1H-1,2,3-triazol-4-yl)(4-fluorophenyl)methyl-d)amino)quinoline-3-carbonitrile], the IC50 in assay [1] is 258 nM. In assay [2], the EC50 is greater than 10000 nM.
As to `[2H][C@](Nc1cc(Cl)c2ncc(C#N)c(NCC(C)(C)C)c2c1)(c1ccc(F)cc1)c1cn(-c2cccnc2)nn1` [Example 335, (S)-8-chloro-6-(((4-fluorophenyl)(1-(pyridin-3-yl)-1H-1,2,3-triazol-4-yl)methyl-d)amino)-4-(neopentylamino)quinoline-3-carbonitrile], the IC50 in assay [1] was 40 nM. Moreover, the EC50 in assay [2] turned out to be 204 nM.

One may read the IC50 as the concentration that gives 50% inhibition. Usually EC50 stands for the midpoint of the concentration-response curve.
